Laboratory results reported in patent publication US20080171710A1, “The Redox/Fyn/c-Cbl Pathway” (priority 2007, published 2008).

Legend:
[1] = test system: O-2A/OPCs; assay: In vitro BrdU incorporation assay; type: cell-based, rat
Outline: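 Surface antigens stained on live or 2% paraformaldehyde-fixed cells; intracellular ones after ice-cold methanol (4 min) or 0.5% Triton (15 min). Fluorescent secondary antibodies applied for 20 min.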

[2] = test system: Akt; type: cell-based, rat
Outline: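 Cells deprived of PDGF-AA for 5 h, then re-exposed to PDGF-AA (10 ng/ml) for 1 h. Lysates in RIPA buffer resolved by SDS-PAGE and immunoblotted with phospho-specific and total Akt or Erk antibodies, detected by HRP chemiluminescence.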

[3] = biological target: T1, Fyn (Rattus norvegicus, UniProt Q62844); type: cell-based
T1 construct: 250 μg of total cell lysates were immunoprecipitated with anti-Fyn antibody; endogenous in cells; host or cells: primary rat O-2A/OPCs
T1 sequence (Q62844 whole entry): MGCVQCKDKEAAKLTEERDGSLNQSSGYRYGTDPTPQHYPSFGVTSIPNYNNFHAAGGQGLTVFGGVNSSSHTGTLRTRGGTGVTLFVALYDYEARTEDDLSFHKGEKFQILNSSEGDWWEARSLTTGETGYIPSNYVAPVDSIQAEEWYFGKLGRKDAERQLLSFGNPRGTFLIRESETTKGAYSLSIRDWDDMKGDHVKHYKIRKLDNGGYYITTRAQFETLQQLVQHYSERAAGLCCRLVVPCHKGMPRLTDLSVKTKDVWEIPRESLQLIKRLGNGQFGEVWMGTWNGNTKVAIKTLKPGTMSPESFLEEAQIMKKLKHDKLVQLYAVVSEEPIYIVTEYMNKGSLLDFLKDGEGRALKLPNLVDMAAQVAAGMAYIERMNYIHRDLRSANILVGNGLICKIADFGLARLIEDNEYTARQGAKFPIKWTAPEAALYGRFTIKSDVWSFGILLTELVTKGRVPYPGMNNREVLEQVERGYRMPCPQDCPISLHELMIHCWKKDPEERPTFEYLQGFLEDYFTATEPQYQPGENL
Outline: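 Rat O-2A/OPC lysates (250 μg total protein) immunoprecipitated with anti-Fyn antibody. Washed Fyn immune complexes assayed for tyrosine kinase activity with a universal tyrosine kinase kit.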

[4] = test system: SRE-luciferase reporter; assay: SRE-luciferase reporter assay; type: cell-based, rat
Experimental: (§1) Cells were deprived of PDGF-AA for 5 h before re-exposure to PDGF-AA (10 ng/ml) for 1 h for Western blot or 6 h for luciferase assays of pathway activation. Transient transfection was performed using Fugene6 (Roche, Basel, Switzerland ) transfection solution according to the manufacturer's protocol. For the luciferase assay, cells seeded in 12-well plates were transfected with a reporter plasmid SRE-Luc(firefly) or NF-κB-Luc(firefly) (BD-Clontech, Palo Alto, Calif., United States) and an internal control plasmid pRLSV40-LUC. Analyses of luciferase activity were performed according to the protocol of the Dual Luciferase Assay System (Promega, Madison, Wis., United States), which uses an internal control of Renilla luciferase for quantification, and relative light units were measured using a luminometer.

[5] = test system: NF-κB-luciferase reporter; assay: NF-κB-luciferase reporter assay; type: cell-based, rat
Experimental: as §1

[6] = test system: PDGFRα; type: cell-based, rat
[7] = test system: O-2A/OPCs; assay: Clonal analysis of division and differentiation; type: cell-based, rat
Experimental: O-2A/OPCs purified from P7 rat optic nerve were plated in. poly-L-lysine-coated 25-cm^2 flasks at clonal density with DMBM medium in the presence of 10-ng/ml PDGF as previously described. After 24-h recovery, cells were treated with different toxicants, each for 3 d, until visual inspection and immunostaining was performed. NAC was added 1 h before exposure to other toxicants for NAC pretreatment, and NAC co-exists throughout the culture period. The numbers of O-2A/OPCs and oligodendrocytes in each clone were determined by counting under fluorescent microscope. […] Experiments were performed in triplicate in at least two independent experiments.

[8] = test system: PDGFRα; assay: PDGFRα phosphorylation (Western blot, anti-PDGFRα(pY742)); type: cell-based, rat
[9] = test system: c-Cbl; type: cell-based, rat
Outline: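 Pre-cleared cell lysates (250 μg total protein) immunoprecipitated with anti-c-Cbl or anti-PDGFRα antibody (2 h, 4° C), then protein A/G agarose overnight at 4° C. Precipitates run on 8% SDS-PAGE and Western blotted with anti-p-Tyr (c-Cbl phosphorylation) or anti-ubiquitin (PDGFR ubiquitylation).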

[10] = test system: EGFR; type: cell-based, rat
Outline: (§2)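 Western blot of cell lysates or sonicated tissue in RAPI buffer, SDS-PAGE to PVDF, primary antibodies (phospho-Erk, phospho-Akt, receptor, phospho-tyrosine), HRP secondary and luminol detection. Signaling analysed in presence of the cognate ligand: EGF for EGFR, NT-3 for TrkC, HGF for c-Met.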

[11] = test system: c-Met; type: cell-based, rat
Outline: as §2

[12] = 30 nM MeHg, 1 μM Pb, 5 μM paraquat
[13] = 1 mM NAC in the absence of toxicants
[14] = NAC 1 mM, PP1 100 nM or ICI 182,780 200 nM with TMX
[15] = added 1 h before Pb or paraquat

## [CH3][Hg][Cl] [MeHg, methylmercury]
[1]; 20 nM MeHg, stimulation with PDGF
  drop in the percentage of O-2A/OPCs incorporating BrdU: approximately 25%
[2]; 30 nM MeHg, 24 h
  PDGF-induced Akt phosphorylation: decreased
[3]; [12]
  Fyn activation after toxicant exposure: stimulated Fyn activation
[4]; 30 nM MeHg
  NT-3-induced expression from SRE-luciferase reporter: no reduction in NT-3-induced expression
[4]; 30 nM MeHg, 24 h
  PDGF-induced SRE-luciferase reporter expression: reduced expression
[5]; 30 nM MeHg, 24 h
  PDGF-induced NF-κB-luciferase reporter expression: decreased
[6]; MeHg 20 nM plus cycloheximide, versus cycloheximide alone
  PDGFRα loss in the presence of cycloheximide: further accelerated receptor loss
[6]; MeHg 30 nM, 1 μM Pb, 5 μM paraquat
  total levels of PDGFRα after toxicant exposure: reduction in levels of the PDGFRα itself
[7]; MeHg exposure, PDGF
  clone composition (cell division at the clonal level): reduction in the number of large clones and an increase in the number of small clones
[8]; [12]
  phosphorylation of PDGFRα after toxicant exposure: also reduced
[9]; [12]
  c-Cbl phosphorylation after toxicant exposure: stimulated
[10]; MeHg, Pb or paraquat
  levels of EGFR after toxicant exposure: reductions
[11]; MeHg, Pb or paraquat
  levels of c-Met after toxicant exposure: reductions

## CC(=O)N[C@@H](CS)C(=O)O [NAC, N-acetyl-L-cysteine]
[1]; with TMX, 2 days
  effect on TMX effect on cell proliferation: blocked
[2]; 1 mM NAC with EtOH
  effect on EtOH suppression of Akt phosphorylation: rescued
[2]; 1 mM NAC with MeHg
  effect on MeHg suppression of Akt phosphorylation: rescued
[3]; [13]
  effect on basal Fyn activity: only a slight, insignificant effect
[3]; [14]
  effect on TMX-induced activation of Fyn: blocked
[3]; added 1 h before MeHg
  effect on MeHg-induced Fyn activation: blocked
[3]; [15]
  effect on Pb- and paraquat-induced Fyn activation: blocked
[4]; 1 mM NAC with MeHg
  effect on MeHg suppression of SRE reporter activity: rescued normal level
[5]; 1 mM NAC with MeHg
  effect on MeHg suppression of Nf-κB reporter activity: rescued normal level
[6]; [14]
  effect on TMX-induced reductions in levels of PDGFRα: blocked
[6]; NAC added 1 hr before EtOH
  effect on EtOH-induced reduction of PDGFRα levels: substantial rescue
[6]; co-exposure with Aβ
  effect on Aβ-induced reduction in PDGFRα levels: blocked
[6]; together with MeHg
  effect on MeHg-induced reductions in levels of PDGFRα: prevented
[6]; together with Pb (1 μM) or paraquat (5 μM)
  effect on Pb- and paraquat-induced reductions in levels of PDGFRα: protected
[7]; co-exposure with MeHg, 1 mM NAC or PP1
  effect on MeHg-induced suppression of cell division at the clonal level: blocked
[8]; co-exposure with MeHg
  effect on MeHg-induced suppression of PDGFRα phosphorylation: rescued
[9]; [13]
  effect on levels of c-Cbl phosphorylation without toxicant: did not have any marked effect
[9]; [14]
  effect on TMX-induced activation of c-Cbl: blocked
[9]; added 1 h before MeHg
  effect on MeHg-induced c-Cbl phosphorylation: blocked
[9]; [15]
  effect on Pb- and paraquat-induced c-Cbl phosphorylation: blocked
[9]; co-exposure with Aβ
  effect on Aβ-induced increase in phosphorylated c-Cbl: blocked
[10]; NAC added 1 hr before EtOH
  effect on EtOH-induced reduction of EGFR levels: substantial rescue
[10]; NAC with MeHg, Pb, or paraquat
  effect on toxicant-associated reductions in EGFR levels: protected
[11]; NAC added 1 hr before EtOH
  effect on EtOH-induced reduction of c-Met levels: substantial rescue
[11]; NAC with MeHg, Pb, or paraquat
  effect on toxicant-associated reductions in c-Met levels: protected
